Data from US11173145B2, “Compounds useful as inhibitors of indoleamine 2,3-dioxygenase and/or tryptophan dioxygenase” (Board of Regents, The University of Texas System, priority 2017, dated 2021).

Target: T1, IDO1 (Homo sapiens, UniProt P14902)
T1 construct: endogenous in cells; host or cells: HeLa cells (ATCC), IFNgamma-induced
Assay: IDO1 cell-based assay (HeLa cells, IFNgamma-induced, N-formylkynurenine/L-tryptophan by RFMS)
Details: 10 ng/mL IFNgamma, 24 hours
Method: HeLa cells were obtained from the American Type Culture Collection (ATCC) and maintained in DMEM media containing 10% FBS. Cells (7,000/well) were seeded onto a 384 well plate in 50 μL of media and incubated at 37° C., 5% CO2 overnight. Cell media was aspirated, fresh media containing 10 ng/mL IFNgamma was added, and cells were incubated in absence or presence of various concentrations of test compound (final 0.5% DMSO) for 24 hours. Aliquots of the cell conditioned media were removed from the cell plate, and mixed with an equal volume of 200 mM ZnSO4 to precipitate media containing proteins. Two volumes of acetonitrile were added, mixed, and samples were then centrifuged at 2250G for 20 minutes at 4° C. Aliquots of the supernatant were diluted 1:10 in 0.1% formic acid containing 3 μM of deuterated Tryptophan as an internal standard.
Samples were analyzed via RFMS to quantify N-Formyl Kynurenine (AUC) and L-tryptophan (AUC). A C18 cartridge was used with mobile phases of 0.1% Formic Acid and 80% ACN/0.1% Formic Acid under isocratic conditions. Dose-response curves were analyzed using IC50 regression curve fitting (GeneData Screener). […] Cell viability was also assessed using the Cell Titer Glo Kit (Promega) following manufacturer recommendation.

T1 sequence (P14902 whole entry): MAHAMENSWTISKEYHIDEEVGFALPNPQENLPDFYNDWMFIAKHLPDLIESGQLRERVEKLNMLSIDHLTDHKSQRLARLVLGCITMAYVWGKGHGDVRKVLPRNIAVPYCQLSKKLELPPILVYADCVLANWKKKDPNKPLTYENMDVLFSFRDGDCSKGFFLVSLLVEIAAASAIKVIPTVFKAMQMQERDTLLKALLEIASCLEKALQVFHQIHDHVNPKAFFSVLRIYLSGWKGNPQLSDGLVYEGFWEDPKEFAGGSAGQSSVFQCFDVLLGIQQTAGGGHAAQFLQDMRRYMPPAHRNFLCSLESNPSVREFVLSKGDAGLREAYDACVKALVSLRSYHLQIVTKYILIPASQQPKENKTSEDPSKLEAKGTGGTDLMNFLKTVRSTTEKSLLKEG

Row | Compound | IC50 [µM]
1 | CCC(NC(=O)c1ccc(Cl)cc1)[C@H]1[C@@H]2C[C@@H](Oc3cncc(F)c3)C[C@@H]21 (stereo partly drawn) [Compound 58, 4-chloro-N-(1-((1R,3s,5S,6r)-3-((5-fluoropyridin-3-yl)oxy)bicyclo[3.1.0]hexan-6-yl)propyl)benzamide] | < 0.2
2 | CCC(NC(=O)c1ccc(Cl)cc1)[C@H]1[C@@H]2C[C@@H](Oc3ncnc4ccccc34)C[C@@H]21 (stereo partly drawn) [Compound 59, 4-chloro-N-(1-((1R,3s,5S,6r)-3-(quinazolin-4-yloxy)bicyclo[3.1.0]hexan-6-yl)propyl)benzamide] | < 0.2
3 | CCC(NC(=O)c1ccc(Cl)cc1)[C@H]1[C@@H]2C[C@@H](Oc3cccnc3Cl)C[C@@H]21 (stereo partly drawn) [Compound 60, 4-chloro-N-(1-((1R,3s,5S,6r)-3-((2-chloropyridin-3-yl)oxy)bicyclo[3.1.0]hexan-6-yl)propyl)benzamide] | < 0.2
4 | O=C(Cc1ccc(Cl)cc1)N[C@H]1[C@@H]2C[C@@H](Oc3ncnc4ccc(F)cc34)C[C@@H]21 [Compound 61, 2-(4-chlorophenyl)-N-((1R,3s,5S,6r)-3-((6-fluoroquinazolin-4-yl)oxy)bicyclo[3.1.0]hexan-6-yl)acetamide] | < 0.2
5 | O=C(Cc1ccc(Cl)cc1)N[C@H]1[C@@H]2C[C@@H](n3cnc4ccc(F)cc4c3=O)C[C@@H]21 [Compound 62, 2-(4-chlorophenyl)-N-((1R,3s,5S,6r)-3-(6-fluoro-4-oxoquinazolin-3(4H)-yl)bicyclo[3.1.0]hexan-6-yl)acetamide] | 2 to 5
6 | CC(NC(=O)c1ccc(Cl)cc1)[C@H]1[C@@H]2C[C@@H](n3cnc4ccc(F)cc4c3=O)C[C@@H]21 (stereo partly drawn) [Compound 63, 4-chloro-N-(1-((1R,3s,5S,6r)-3-(6-fluoro-4-oxoquinazolin-3(4H)-yl)bicyclo[3.1.0]hexan-6-yl)ethyl)benzamide] | < 0.2
7 | CC(NC(=O)c1ccc(Cl)cc1)[C@H]1[C@@H]2C[C@@H](Oc3ncnc4ccc(F)cc34)C[C@@H]21 (stereo partly drawn) [Compound 64, 4-chloro-N-(1-((1R,3s,5S,6r)-3-((6-fluoroquinazolin-4-yl)oxy)bicyclo[3.1.0]hexan-6-yl)ethyl)benzamide] | < 0.2
8 | O=C(NC[C@@H]1[C@H]2C[C@H](n3cnc4ccc(F)cc4c3=O)C[C@@H]12)c1ccc(Cl)cc1 [Compound 65, 4-chloro-N-(((1R,3s,5S,6r)-3-(6-fluoro-4-oxoquinazolin-3(4H)-yl)bicyclo[3.1.0]hexan-6-yl)methyl)benzamide] | 0.2 to 2
9 | CCC(NC(=O)c1ccc(C#N)cc1)[C@H]1[C@@H]2C[C@@H](Oc3ncnc4ccc(F)cc34)C[C@@H]21 (stereo partly drawn) [Compound 66, 4-cyano-N-(1-((1R,3s,5S,6r)-3-((6-fluoroquinazolin-4-yl)oxy)bicyclo[3.1.0]hexan-6-yl)propyl)benzamide] | < 0.2
10 | CCC(NC(=O)c1ccc(C#N)cc1)[C@H]1[C@@H]2C[C@@H](n3cnc4ccc(F)cc4c3=O)C[C@@H]21 (stereo partly drawn) [Compound 67, 4-cyano-N-(1-((1R,3s,5S,6r)-3-(6-fluoro-4-oxoquinazolin-3(4H)-yl)bicyclo[3.1.0]hexan-6-yl)propyl)benzamide] | < 0.2
11 | CCC(NC(=O)c1cnc(OC)nc1)[C@H]1[C@@H]2C[C@@H](Oc3ncnc4ccc(F)cc34)C[C@@H]21 (stereo partly drawn) [Compound 68, N-(1-((1R,3s,5S,6r)-3-((6-fluoroquinazolin-4-yl)oxy)bicyclo[3.1.0]hexan-6-yl)propyl)-2-methoxypyrimidine-5-carboxamide] | 2 to 5
12 | CCC(NC(=O)c1ccc2c(c1)OC(F)(F)O2)C1C2CC(Oc3ncnc4ccc(F)cc34)CC21 [Compound 69, 2,2-difluoro-N-(1-((1R,3s,5S,6r)-3-((6-fluoroquinazolin-4-yl)oxy)bicyclo[3.1.0]hexan-6-yl)propyl)benzo[d][1,3]dioxole-5-carboxamide] | < 0.2
13 | CC(NC(=O)c1ccc(Cl)cc1)[C@H]1[C@@H]2C[C@@H](Oc3ncnc4cc(F)ccc34)C[C@@H]21 (stereo partly drawn) [Compound 70, 4-chloro-N-(1-((1R,3s,5S,6r)-3-((7-fluoroquinazolin-4-yl)oxy)bicyclo[3.1.0]hexan-6-yl)ethyl)benzamide] | < 0.2
14 | Cc1cccnc1O[C@@H]1C[C@@H]2[C@H](C1)[C@H]2C(C)NC(=O)c1ccc(Cl)cc1 (stereo partly drawn) [Compound 71, 4-chloro-N-(1-((1R,3s,5S,6r)-3-((3-methylpyridin-2-yl)oxy)bicyclo[3.1.0]hexan-6-yl)ethyl)benzamide] | < 0.2
15 | CCC(NC(=O)c1ccc(Cl)cc1)C1C2CC(Oc3nncc4ccccc34)CC21 [Compound 72, 4-chloro-N-(1-((1R,3s,5S,6r)-3-(phthalazin-1-yloxy)bicyclo[3.1.0]hexan-6-yl)propyl)benzamide] | < 0.2
16 | CCC(NC(=O)c1ccc(Cl)cc1)[C@H]1[C@@H]2C[C@@H](N3CCOCC3)C[C@@H]21 (stereo partly drawn) [Compound 73, 4-chloro-N-(1-((1R,3s,5S,6r)-3-morpholinobicyclo[3.1.0]hexan-6-yl)propyl)benzamide] | 2 to 5

Row | Compound | IC50 [µM]
17 | CCC(NC(=O)c1ccc(OC)nc1)[C@H]1[C@@H]2C[C@@H](n3cnc4ccc(F)cc4c3=O)C[C@@H]21 (stereo partly drawn) [Compound 74, N-(1-((1R,3s,5S,6r)-3-(6-fluoro-4-oxoquinazolin-3(4H)-yl)bicyclo[3.1.0]hexan-6-yl)propyl)-6-methoxynicotinamide] | 0.2 to 2
18 | CCC(NC(=O)c1ccc(Cl)cn1)C1C2CC(n3cnc4ccc(F)cc4c3=O)CC21 [Compound 75, 5-chloro-N-(1-((1R,3s,5S,6r)-3-(6-fluoro-4-oxoquinazolin-3(4H)-yl)bicyclo[3.1.0]hexan-6-yl)propyl)picolinamide] | < 0.2
19 | CCC(NC(=O)c1ccc(C#N)cn1)C1C2CC(n3cnc4ccc(F)cc4c3=O)CC21 [Compound 76, 5-cyano-N-(1-((1R,3s,5S,6r)-3-(6-fluoro-4-oxoquinazolin-3(4H)-yl)bicyclo[3.1.0]hexan-6-yl)propyl)picolinamide] | 0.2 to 2
20 | CCC(NC(=O)c1ccc(Cl)cn1)C1[C@H]2CC(Oc3cnnc4ccccc34)C[C@@H]12 (stereo partly drawn) [Compound 77, 5-chloro-N-(1-((1R,5S)-3-(cinnolin-4-yloxy)bicyclo[3.1.0]hexan-6-yl)propyl)picolinamide] | 0.2 to 2
21 | CCC(NC(=O)c1ccc(OC)nc1)C1C2CC(Oc3ncnc4ccc(F)cc34)CC21 [Compound 78, N-(1-((1R,3s,5S,6r)-3-((6-fluoroquinazolin-4-yl)oxy)bicyclo[3.1.0]hexan-6-yl)propyl)-6-methoxynicotinamide] | < 0.2
22 | O=C(Cc1ccc(Cl)cc1)NC1[C@H]2CC(Oc3cnnc4ccccc34)C[C@@H]12 (stereo partly drawn) [Compound 79, 2-(4-chlorophenyl)-N-((1R,3s,5S,6r)-3-(cinnolin-4-yloxy)bicyclo[3.1.0]hexan-6-yl)acetamide] | 0.2 to 2
23 | CCC(NC(=O)c1ccc(C#N)cc1)[C@H]1[C@@H]2C[C@@H](Oc3cnnc4ccccc34)C[C@@H]21 (stereo partly drawn) [Compound 80, N-(1-((1R,3s,5S,6r)-3-(cinnolin-4-yloxy)bicyclo[3.1.0]hexan-6-yl)propyl)-4-cyanobenzamide] | < 0.2
24 | CCC(NC(=O)c1ccc(Cl)cc1)[C@H]1[C@@H]2C[C@@H](n3cncn3)C[C@@H]21 (stereo partly drawn) [Compound 81, N-(1-((1R,3s,5S,6r)-3-(1H-1,2,4-triazol-1-yl)bicyclo[3.1.0]hexan-6-yl)propyl)-4-chlorobenzamide] | 0.2 to 2
25 | CCC(NC(=O)c1ccc(C#N)cn1)C1C2CC(Oc3cnnc4ccccc34)CC21 [Compound 82, N-(1-((1R,3s,5S,6r)-3-(cinnolin-4-yloxy)bicyclo[3.1.0]hexan-6-yl)propyl)-5-cyanopicolinamide] | 0.2 to 2
26 | CCC(NC(=O)c1ccc(C#N)cn1)[C@H]1[C@@H]2C[C@@H](n3ncc(=O)c4ccccc43)C[C@@H]21 (stereo partly drawn) [Compound 83, 5-cyano-N-(1-((1R,3s,5S,6r)-3-(4-oxocinnolin-1(4H)-yl)bicyclo[3.1.0]hexan-6-yl)propyl)picolinamide] | 0.2 to 2
27 | CCOC(=O)CC(NC(=O)c1ccc(Cl)cc1)[C@H]1[C@@H]2C[C@@H](Oc3cnnc4ccccc34)C[C@@H]21 (stereo partly drawn) [Compound 84, ethyl 3-(4-chlorobenzamido)-3-((1R,3s,5S,6r)-3-(cinnolin-4-yloxy)bicyclo[3.1.0]hexan-6-yl)propanoate] | < 0.2
28 | O=C(Cc1ccc(Cl)cc1)N[C@H]1[C@@H]2C[C@@H](n3ncc(=O)c4ccccc43)C[C@@H]21 [Compound 85, 2-(4-chlorophenyl)-N-((1R,3s,5S,6r)-3-(4-oxocinnolin-1(4H)-yl)bicyclo[3.1.0]hexan-6-yl)acetamide] | > 5
29 | CN(C(=O)Cc1ccc(Cl)cc1)[C@H]1[C@@H]2C[C@@H](Oc3cnnc4ccccc34)C[C@@H]21 [Compound 86, 2-(4-chlorophenyl)-N-((1R,3s,5S,6r)-3-(cinnolin-4-yloxy)bicyclo[3.1.0]hexan-6-yl)-N-methylacetamide] | 2 to 5
30 | CC(C)(NC(=O)c1ccc(C#N)cc1)C1[C@H]2CC(n3ncc(=O)c4ccccc43)C[C@@H]12 (stereo partly drawn) [Compound 87, 4-cyano-N-(2-((1R,5S)-3-(4-oxocinnolin-1(4H)-yl)bicyclo[3.1.0]hexan-6-yl)propan-2-yl)benzamide] | < 0.2
31 | CC(C)(NC(=O)c1ccc(C#N)cc1)C1[C@H]2CC(Oc3cnnc4ccccc34)C[C@@H]12 (stereo partly drawn) [Compound 88, N-(2-((1R,5S)-3-(cinnolin-4-yloxy)bicyclo[3.1.0]hexan-6-yl)propan-2-yl)-4-cyanobenzamide] | < 0.2
